Experimental data reported in patent publication US8703811B2, “Small molecule inhibitors of Plasmodium falciparum dihydroorotate dehydrogenase” (Genzyme Corporation, priority 2008, dated 2014).
pEC50, pIC50: −log10 of the molar value. Read-outs that look alike come from different tables or passages of the source.

Columns and labels:
P. falciparum 3D7 = test: Inhibition of in vitro P. falciparum culture, [3H]-hypoxanthine uptake, 3D7; type: cell-based; conditions: read-out: 3D7 EC50
Procedure: (§1) P. falciparum strains D10, 3D7, HB3, and Dd2 were obtained from the Malaria Research and Reference Reagent Resource Center (Manassas, Va.). The parasite strains were maintained in vitro by method of Trager and Jensen. The inhibition of P. falciparum growth in the presence of drug was assessed by the relative reduction of [^3H]-hypoxanthine uptake as previously described. Inhibition data were fitted to Equation 1 using non-linear regression analysis except that the relative velocity of parasite growth was substituted for the rate of product formation.

P. falciparum Dd2 = test: Inhibition of in vitro P. falciparum culture, [3H]-hypoxanthine uptake, Dd2; type: cell-based; conditions: read-out: Dd2 EC50
Procedure: as §1

pfDHODH = pfDHODH (Plasmodium falciparum (isolate 3D7), UniProt Q08210); test: DHODH chromogen reduction (DCIP) assay, pfDHODH; type: biochemical, P. falciparum
Description: Type 2 DHODH activity was monitored with either the direct assay measuring the formation of orotate or via a chromogen reduction assay using DCIP. Although the extinction coefficient and absorption wavelength are preferable for the chromogen reduction assay, the inorganic electron acceptor DCIP can be utilized by DHODH as the final electron acceptor in lieu of CoQn when the endogenous substrate is at a low concentration. As such, the direct assay was used to measure the binding affinity of pfDHODH to CoQD and L-DHO. The enzymatic reaction was performed by varying the L-DHO concentration (1-400 μM) or CoQD concentration (1-200 μM) while keeping the other substrate constant and in excess.
Substrate specificity and enzyme inhibition data was analyzed with GraphPad Prism Version 4 for Windows (GraphPad Software). Kinetic constants were calculated by non-linear regression fitting of the data to the Michaelis-Menten equation [36]. IC50 values were determined by non-linear regression fitting of the data to Equation 1: […]

[1] = Plasmodium falciparum, 3D7, Table 2b
[2] = Plasmodium falciparum, DD2, Table 2b
[3] = Table 2b, read-out: pfDHODH IC50

Chain of pfDHODH (Q08210 159-565 limits assumed): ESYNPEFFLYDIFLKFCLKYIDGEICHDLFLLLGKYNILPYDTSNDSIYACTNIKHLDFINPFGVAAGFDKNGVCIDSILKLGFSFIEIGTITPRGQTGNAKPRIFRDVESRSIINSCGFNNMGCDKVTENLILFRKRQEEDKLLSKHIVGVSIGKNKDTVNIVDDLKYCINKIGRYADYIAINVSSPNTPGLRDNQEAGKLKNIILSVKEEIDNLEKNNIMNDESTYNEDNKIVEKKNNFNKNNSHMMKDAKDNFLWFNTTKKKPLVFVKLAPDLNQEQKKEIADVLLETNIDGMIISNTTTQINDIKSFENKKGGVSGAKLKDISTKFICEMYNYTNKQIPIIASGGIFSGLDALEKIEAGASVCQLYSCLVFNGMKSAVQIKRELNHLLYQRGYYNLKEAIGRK

| SMILES | pEC50 (P. falciparum 3D7; [1]) | pEC50 (P. falciparum Dd2; [2]) | pIC50 (pfDHODH; [3]) | pEC50 (P. falciparum 3D7; Table 2b) | pEC50 (P. falciparum Dd2; Table 2b) | pIC50 (pfDHODH; pfDHODH IC50, Table 2b) |
| --- | --- | --- | --- | --- | --- | --- |
| NC(=O)c1ccc(-n2cnc3ccccc32)s1 [Compound 28] | < 4.40 | 4.70 | < 4.52 |  |  |  |
| Cc1nc2ccc(-c3ccccc3)cc2n1-c1ccc(C(=O)NC2CC2)s1 [Compound 98] |  |  | 7.05 |  |  |  |
| CCCCNC(=O)c1ccc(-n2cnc3ccccc32)s1 [Compound 29] | 4.70 | 5.14 | 4.54 |  |  |  |
| Cc1nc2cc3ccccc3cc2n1-c1ccc(C(=O)NC2CC2)s1 [Compound 93] | 7.77 | 7.72 | 7.46 |  |  |  |
| CCCNC(=O)c1ccc(-n2ccnc2)s1 [Compound 15, 5-(1H-imidazol-1-yl)-N-propylthiophene-2-carboxamide] | < 5.00 | < 5.00 | 3.78 |  |  |  |
| CN(C)C(=O)c1ccc(-n2cnc3ccccc32)s1 [Compound 27] | < 4.40 | < 4.40 | < 4.52 |  |  |  |
| Cc1nc(-c2ccc(Cl)cc2)cn1-c1ccc(C(=O)NC2CC2)s1 [Compound 96] |  |  | 6.60 |  |  |  |
| Cc1nc2cc(Cl)ccc2n1-c1ccc(C(=O)NC2CC2)s1 [Compound 41] |  |  |  | 7.17 | 7.08 | 7.40 |
| Cn1c(-c2ccc(C(=O)NC3CC3)s2)nc2ccccc21 [Compound 79] | < 5.30 | < 5.30 | < 4.52 |  |  |  |
| Cc1nc2cc(-c3ccccc3)ccc2n1-c1ccc(C(=O)NC2CC2)s1 [Compound 97] |  |  | 6.75 |  |  |  |
| CCCNC(=O)c1ccc(N2CCOCC2)s1 [Compound 13, 5-morpholino-N-propylthiophene-2-carboxamide] | < 5.00 | < 5.00 | < 3.60 |  |  |  |
| O=C(NC1CC1)c1ccc(-n2c(O)nc3ccccc32)s1 [Compound 45] | 5.30 | 5.30 | < 4.52 |  |  |  |
| Cc1nc2ccccc2n1-c1cscc1C(=O)NC1CC1 [Compound 77, N-cyclopropyl-4-(2-methyl-1H-benzo[d]imidazol-1-yl)thiophene-3-carboxamide] | < 5.30 | < 5.30 | < 4.52 |  |  |  |
| O=C(NC1CC1)c1ccc(-n2nnc3ccccc32)s1 [Compound 99, 5-(1H-benzo[d][1,2,3]triazol-1-yl)-N-cyclopropylthiophene-2-carboxamide] |  |  | 4.55 |  |  |  |
| CCCNC(=O)c1ccc(N2CCc3ccccc32)s1 [Compound 20, 5-(indolin-1-yl)-N-propylthiophene-2-carboxamide] | < 5.00 | < 5.00 | < 4.52 |  |  |  |
| CCCC/C(=N\OC)c1ccc(-n2cnc3ccccc32)s1 [Compound 89, 1-[5-(1H-benzimidazol-1-yl)-2-thienyl]pentan-1-one O-methyloxime] | 5.28 | 5.36 | < 4.52 |  |  |  |
| Cc1nc2ccccc2n1-c1cc(C(=O)NC2CC2)cs1 [Compound 78, N-cyclopropyl-5-(2-methyl-1H-benzo[d]imidazol-1-yl)thiophene-3-carboxamide] | 5.99 | 5.69 | 5.77 |  |  |  |
| CCCC/C(=N\O)c1ccc(-n2cnc3ccccc32)s1 [Compound 86, 1-[5-(1H-benzimidazol-1-yl)-2-thienyl]pentan-1-one oxime] | 5.00 | 4.70 | < 4.52 |  |  |  |
| CCCNC(=O)c1ccc(N2CCSc3ncccc32)s1 [Compound 21, 5-(2,3-dihydro-1H-pyrido[2,3-b][1,4]thiazin-1-yl)-N-propylthiophene-2-carboxamide] | < 5.00 | < 5.00 | 4.86 |  |  |  |
| CCCN(C)C(=O)c1ccc(-n2cnc3ccccc32)s1 [Compound 48] | < 5.30 | < 5.30 | < 4.52 |  |  |  |
| CCCNC(=O)c1ccc(-n2cnc3cncnc32)s1 [Compound 16, N-propyl-5-(9H-purin-9-yl)thiophene-2-carboxamide] | < 5.00 | < 5.00 |  |  |  |  |
| Cn1c(-c2ccc(-c3nc4ccccc4n3C)s2)nc2ccccc21 [Compound 82] | < 5.30 | < 5.30 | < 4.52 |  |  |  |
| c1ccc2oc(-c3ccc(-c4nc5ccccc5o4)s3)nc2c1 [Compound 83] | < 5.30 | < 5.30 | < 4.52 |  |  |  |

| SMILES | pEC50 (P. falciparum 3D7; [1]) | pEC50 (P. falciparum Dd2; [2]) | pIC50 (pfDHODH; [3]) | pEC50 (P. falciparum 3D7; Table 2b) | pEC50 (P. falciparum Dd2; Table 2b) | pIC50 (pfDHODH; pfDHODH IC50, Table 2b) |
| --- | --- | --- | --- | --- | --- | --- |
| Cc1nc2cc(F)c(F)cc2n1-c1ccc(C(=O)NC2CC2)s1 [Compound 95] |  |  | 6.98 |  |  |  |
| CCCNC(=O)c1ccc(N2CCOc3ccc(Cl)cc32)s1 [Compound 19, 5-(6-chloro-2H-benzo[b][1,4]oxazin-4(3H)-yl)-N-propylthiophene-2-carboxamide] | < 5.00 | < 5.00 | 5.12 |  |  |  |
| CC[C@@H](C)NC(=O)c1ccc(-n2cnc3ccccc32)s1 [Compound 47] | < 5.30 | < 5.30 | < 4.52 |  |  |  |
| CCCC/C(=N/OC)c1ccc(-n2cnc3ccccc32)s1 [Compound 88, 1-[5-(1H-benzimidazol-1-yl)-2-thienyl]pentan-1-one O-methyloxime] | 5.27 | 5.59 | < 4.52 |  |  |  |
| O=C(NC1CC1)c1ccc(-n2ncc3ccccc32)s1 [Compound 100, N-cyclopropyl-5-(1H-indazol-1-yl)thiophene-2-carboxamide] |  |  | < 4.52 |  |  |  |
| Cc1nc2cccnc2n1-c1ccc(C(=O)NC2CC2)s1 [Compound 72] | 6.44 | 6.28 | 5.95 |  |  |  |
| CCCNC(=O)c1ccc(N2CCSc3ccccc32)s1 [Compound 18, 5-(2H-benzo[b][1,4]thiazin-4(3H)-yl)-N-propylthiophene-2-carboxamide] | < 5.00 | < 5.00 | 5.04 |  |  |  |
| CCCNC(=O)c1ccc(N2CC(C)Sc3ccccc32)s1 (centres unmarked) [Compound 17, 5-(2-methyl-2H-benzo[b][1,4]thiazin-4(3H)-yl)-N-propylthiophene-2-carboxamide] | < 5.00 | < 5.00 | 4.72 |  |  |  |
| c1ccc2[nH]c(-c3ccc(-c4nc5ccccc5[nH]4)s3)nc2c1 [Compound 81] | 5.30 | < 5.30 | < 4.52 |  |  |  |
| Cc1nc2cnccc2n1-c1ccc(C(=O)NC2CC2)s1 [Compound 71] | 5.43 | 5.20 | 5.51 |  |  |  |
| Cc1nc2cc(OC(C)C)ccc2n1-c1ccc(C(=O)NC2CC2)s1 [Compound 94] | 7.29 | 7.21 | 6.92 |  |  |  |
| CCCCC(O)c1ccc(-n2cnc3ccccc32)s1 (centres unmarked) [Compound 85, 1-[5-(1H-benzimidazol-1-yl)-2-thienyl]pentan-1-ol] | 4.70 | 5.23 | < 4.52 |  |  |  |
| CCNC(=O)c1ccc(-n2c(C)nc3cc(F)ccc32)cc1 [Compound 91] | < 6.30 | < 6.30 | 5.54 |  |  |  |
| O=C(c1ccc(-n2cnc3ccccc32)s1)N1CCCC1 [Compound 26] | 5.00 | 4.70 | < 4.52 |  |  |  |
| CCCNC(=O)c1ccc(N2Cc3cccc(OC)c3Oc3ncccc32)s1 [Compound 22, 5-(10-methoxybenzo[f]pyrido[2,3-b][1,4]oxazepin-5(6H)-yl)-N-propylthiophene-2-carboxamide] | < 5.00 | < 5.00 | < 4.52 |  |  |  |
| O=C(NC1CC1)c1ccc(-c2nc3ccccc3o2)s1 [Compound 80] | 5.59 | 5.77 | < 4.52 |  |  |  |
| Cc1nc2ncccc2n1-c1ccc(C(=O)NC2CC2)s1 [Compound 73] | 5.89 | 5.62 | 5.32 |  |  |  |
| CCNC(=O)c1cccc(-n2c(C)nc3cc(F)ccc32)c1 [Compound 92] | < 6.00 | < 6.00 | < 4.52 |  |  |  |
| O=C(c1ccc(-n2cnc3ccccc32)s1)N1CCC1 [Compound 46] | 5.30 | 5.30 | 4.78 |  |  |  |
| O=C(c1ccc(-n2cnc3ccccc32)s1)N1CCCCC1 [Compound 34] | < 4.70 | < 4.70 | < 4.52 |  |  |  |
| CC[C@H](C)NC(=O)c1ccc(-n2cnc3ccccc32)s1 [Compound 37] | < 4.70 | < 4.70 | 4.75 |  |  |  |
| CCCNC(=O)c1ccc(N2CCCC2)s1 [Compound 14, N-propyl-5-(pyrrolidin-1-yl)thiophene-2-carboxamide] | < 5.00 | < 5.00 | < 3.60 |  |  |  |
| CCCC/C(=N/O)c1ccc(-n2cnc3ccccc32)s1 [Compound 87, 1-[5-(1H-benzimidazol-1-yl)-2-thienyl]pentan-1-one oxime] | 4.40 | 5.00 | < 4.52 |  |  |  |
